Experimental data as given in patent US9181277B2, “Aminoquinazoline derivatives and their salts and methods of use” (SUNSHINE LAKE PHARMA CO., LTD., priority 2011, dated 2015).

Molecular target: EGFR Kinase (Homo sapiens, UniProt P00533)
Experiment: EGFR inhibitory activity test (HTRF kinEASE STK S1 kinase assay)
Type: biochemical
Details: replicate wells, read-out: IC50(nM), Inhibitory Activity of Compounds on EGFR Kinase
Procedure: In a pilot study, the compounds disclosed herein were screened for their EGFR inhibitory activity. The Cisbio Research Product HTRF kinEASE STK S1 kinase assay/inhibitor screening Kit, can detect the generation of the phosphorylated substrate. Kinase, biotinylated substrate and ATP were first added into buffer solution, and the phosphorylated biotinylated substrates were formed by enzyme reaction. Then, to the above solution was added europium-labeled anti-phospho-site specific antibodies and XL665-labeled avidin. The Specific combinations of antibody with antigen, and biotin with avidin, bring the europium and XL665 closer together and resonance energy transferred. The signals at 620 nm and 665 nm were detected, and the activity of the kinase was evaluated by the ratio of the two signals value.

EGFR Kinase, sequence (P00533 25-1210): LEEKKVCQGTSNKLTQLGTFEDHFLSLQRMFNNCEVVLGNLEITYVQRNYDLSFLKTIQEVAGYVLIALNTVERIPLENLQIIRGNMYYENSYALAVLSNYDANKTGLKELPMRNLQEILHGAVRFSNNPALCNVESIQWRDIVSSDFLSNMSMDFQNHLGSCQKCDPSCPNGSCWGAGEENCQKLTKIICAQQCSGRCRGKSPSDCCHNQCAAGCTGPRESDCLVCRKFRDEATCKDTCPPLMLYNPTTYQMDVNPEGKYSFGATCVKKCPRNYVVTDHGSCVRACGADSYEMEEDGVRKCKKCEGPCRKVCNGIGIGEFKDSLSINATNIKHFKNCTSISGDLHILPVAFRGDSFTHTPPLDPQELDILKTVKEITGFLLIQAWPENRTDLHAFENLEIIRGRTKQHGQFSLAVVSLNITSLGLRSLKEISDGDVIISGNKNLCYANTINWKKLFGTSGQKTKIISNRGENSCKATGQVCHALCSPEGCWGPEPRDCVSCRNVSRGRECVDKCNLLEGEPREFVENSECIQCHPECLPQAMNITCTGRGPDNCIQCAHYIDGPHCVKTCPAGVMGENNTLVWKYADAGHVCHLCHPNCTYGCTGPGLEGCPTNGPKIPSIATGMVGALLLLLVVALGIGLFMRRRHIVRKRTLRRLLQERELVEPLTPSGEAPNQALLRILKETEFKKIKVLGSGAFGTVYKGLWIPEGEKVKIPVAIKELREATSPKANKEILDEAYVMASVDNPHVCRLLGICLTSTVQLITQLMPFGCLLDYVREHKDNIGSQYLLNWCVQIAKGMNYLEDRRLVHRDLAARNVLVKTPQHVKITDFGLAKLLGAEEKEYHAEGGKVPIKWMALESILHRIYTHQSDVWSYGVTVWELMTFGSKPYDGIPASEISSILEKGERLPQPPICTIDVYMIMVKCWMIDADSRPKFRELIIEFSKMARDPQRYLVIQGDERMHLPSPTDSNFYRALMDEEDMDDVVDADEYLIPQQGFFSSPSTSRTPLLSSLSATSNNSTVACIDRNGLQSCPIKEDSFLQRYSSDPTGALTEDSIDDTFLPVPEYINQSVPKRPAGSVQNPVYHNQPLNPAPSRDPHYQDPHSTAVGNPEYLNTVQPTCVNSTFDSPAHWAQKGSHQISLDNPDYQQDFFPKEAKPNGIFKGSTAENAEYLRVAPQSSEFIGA

SMILES	IC50 [nM]
COc1cc2ncnc(Nc3ccc(F)c(Cl)c3)c2cc1OCCCN1CCn2c(nnc2C(F)(F)F)C1 [Example 1, N-(3-chloro-4-fluorophenyl)-7-methoxy-6-(3-(3-(trifluoromethyl)-5,6-dihydro-[1,2,4]triazolo[4,3-a]pyrazin-7(8H)-yl)propoxy)quinazolin-4-amine]	1 to 10
CCc1nnc2n1CCN(CCCOc1cc3c(Nc4ccc(F)c(Cl)c4)ncnc3cc1OC)C2 [Example 2, N-(3-chloro-4-fluorophenyl)-6-(3-(3-ethyl-5,6-dihydro-[1,2,4]triazolo[4,3-a]pyrazin-7(8H)-yl)propoxy)-7-methoxyquinazolin-4-amine]	> 10
COc1cc2ncnc(Nc3ccc(F)c(Cl)c3)c2cc1OCCCN1CCn2cnnc2C1 [Example 3, N-(3-chloro-4-fluorophenyl)-6-(3-(5,6-dihydro-[1,2,4]triazolo[4,3-a]pyrazin-7(8H)-yl)propoxy)-7-methoxyquinazolin-4-amine]	0.101 to 1
COc1cc2ncnc(Nc3ccc(F)cc3)c2cc1OCCCN1CC2OCCOC2C1 (centres unmarked) [Example 7, N-(4-fluorophenyl)-7-methoxy-6-(3-(tetrahydro-2H-[1,4]dioxino[2,3-c]pyrrol-6(3H)-yl)propoxy) quinazolin-4-amine]	1 to 10
C#Cc1cccc(Nc2ncnc3cc(OC)c(OCCCN4CC5OCCOC5C4)cc23)c1 (centres unmarked) [Example 8, N-(3-ethynylphenyl)-7-methoxy-6-(3-(tetrahydro-2H-[1,4]dioxino[2,3-c]pyrrol-6(3H)-yl)propoxy)quinazolin-4-amine]	0.001 to 0.1
C#Cc1cc(Nc2ncnc3cc(OC)c(OCCCN4CC5OCCOC5C4)cc23)ccc1F (centres unmarked) [Example 9, N-(3-ethynyl-4-fluorophenyl)-7-methoxy-6-(3-(tetrahydro-2H-[1,4]dioxino[2,3-c]pyrrol-6(3H)-yl)propoxy)quinazolin-4-amine]	1 to 10
COc1cc2ncnc(Nc3ccc(Br)cc3F)c2cc1OCCCN1CC2OCCOC2C1 (centres unmarked) [Example 10, N-(4-bromo-2-fluorophenyl)-7-methoxy-6-(3-(tetrahydro-2H-[1,4]dioxino[2,3-c]pyrrol-6(3H)-yl)propoxy)quinazolin-4-amine]	> 10
COc1cc2ncnc(Nc3ccc(F)c(Cl)c3)c2cc1OCCCN1CC2OCCN(Cc3ccccc3)C2C1 (centres unmarked) [Example 16, 6-(3-(4-benzylhexahydropyrrolo[3,4-b][1,4]oxazin-6(2H)-yl)propoxy)-N-(3-chloro-4-fluorophenyl)-7-methoxyquinazolin-4-amine]	1 to 10
COc1cc2ncnc(Nc3ccc(F)c(Cl)c3)c2cc1OCCCN1CCc2noc(C)c2C1 [Example 24, N-(3-chloro-4-fluorophenyl)-7-methoxy-6-(3-(3-methyl-6,7-dihydroisoxazolo[4,3-c]pyridin-5(4H)-yl)propoxy)quinazolin-4-amine]	0.001 to 0.1
COc1cc2ncnc(Nc3ccc(F)c(Cl)c3)c2cc1OCCCN1CCCC2CNCC21 (centres unmarked) [Example 26, N-(3-chloro-4-fluorophenyl)-7-methoxy-6-(3-(octahydro-1H-pyrrolo[3,4-b]pyridin-1-yl)propoxy) quinazolin-4-amine]	0.001 to 0.1
COc1cc2ncnc(Nc3ccc(F)c(Cl)c3)c2cc1OCCCN1CCCC2CN(C)CC21 (centres unmarked) [Example 27, N-(3-chloro-4-fluorophenyl)-7-methoxy-6-(3-(6-methyloctahydro-1H-pyrrolo[3,4-b]pyridin-1-yl)propoxy)quinazolin-4-amine]	0.001 to 0.1
CCN1CC2CCCN(CCCOc3cc4c(Nc5ccc(F)c(Cl)c5)ncnc4cc3OC)C2C1 (centres unmarked) [Example 29, N-(3-chloro-4-fluorophenyl)-6-(3-(6-ethyloctahydro-1H-pyrrolo[3,4-b]pyridin-1-yl)propoxy)-7-methoxyquinazolin-4-amine]	0.001 to 0.1
COc1cc2ncnc(Nc3ccc(F)c(Cl)c3)c2cc1OCCCN1CCCC2OCCCC21 (centres unmarked) [Example 31, N-(3-chloro-4-fluorophenyl)-6-(3-(hexahydro-2H-pyrano[3,2-b]pyridin-5(3H)-yl)propoxy)-7-methoxyquinazolin-4-amine]	0.001 to 0.1

Results, then the molecule that gave them:

IC50 [nM]	SMILES
0.001 to 0.1	COc1cc2ncnc(Nc3ccc(F)c(Cl)c3)c2cc1OCCCN1C[C@@H]2C[C@]2(O)C1 [Example 4, (1R,5S)-3-(3-((4-((3-chloro-4-fluorophenyl)amino)-7-methoxyquinazolin-6-yl)oxy)propyl)-3-azabicyclo[3.1.0]hexan-1-ol]
0.101 to 1	COc1cc2ncnc(Nc3ccc(F)c(Cl)c3)c2cc1OCCCN1C[C@@H]2C[C@]2(N(C)C)C1 [Example 5]
0.001 to 0.1	COc1cc2ncnc(Nc3ccc(F)c(Cl)c3)c2cc1OCCCN1CC2OCCOC2C1 (centres unmarked) [Example 6, N-(3-chloro-4-fluorophenyl)-7-methoxy-6-(3-(tetrahydro-2H-[1,4]dioxino[2,3-c]pyrrol-6(3H)-yl)propoxy)quinazolin-4-amine]
0.001 to 0.1	COc1cc2ncnc(Nc3ccc(F)c(Cl)c3)c2cc1OCCCN1CC2CNCC2C1 (centres unmarked) [Example 11, N-(3-chloro-4-fluorophenyl)-6-(3-(hexahydropyrrolo[3,4-c]pyrrol-2(1H)-yl)propoxy)-7-methoxyquinazolin-4-amine]
0.101 to 1	COc1cc2ncnc(Nc3ccc(F)c(Cl)c3)c2cc1OCCCN1CC2CN(C)CC2C1 (centres unmarked) [Example 12, N-(3-chloro-4-fluorophenyl)-7-methoxy-6-(3-(5-methylhexahydropyrrolo[3,4-c]pyrrol-2(1H)-yl)propoxy)quinazolin-4-amine]
0.001 to 0.1	COc1cc2ncnc(Nc3ccc(F)c(Cl)c3)c2cc1OCCCN1CCC2CNCC21 (centres unmarked) [Example 13, N-(3-chloro-4-fluorophenyl)-6-(3-(hexahydropyrrolo[3,4-b]pyrrol-1(2H)-yl)propoxy)-7-methoxyquinazolin-4-amine]
1 to 10	COc1cc2ncnc(Nc3ccc(F)c(Cl)c3)c2cc1OCCCN1CCC2CN(C(C)=O)CC21 (centres unmarked) [Example 14, 1-(1-(3-((4-((3-chloro-4-fluorophenyl)amino)-7-methoxyquinazolin-6-yl)oxy)propyl)hexahydropyrrolo[3,4-b]pyrrol-5(1H)-yl)ethanone]
0.101 to 1	COc1cc2ncnc(Nc3ccc(F)c(Cl)c3)c2cc1OCCCN1CC2OCCN(C)C2C1 (centres unmarked) [Example 15, N-(3-chloro-4-fluorophenyl)-7-methoxy-6-(3-(4-methylhexahydropyrrolo[3,4-b][1,4]oxazin-6(2H)-yl)propoxy)quinazolin-4-amine]
0.001 to 0.1	COc1cc2ncnc(Nc3ccc(F)c(Cl)c3)c2cc1OCCCN1CCC2CCNC2C1 (centres unmarked) [Example 17, N-(3-chloro-4-fluorophenyl)-6-(3-(hexahydro-1H-pyrrolo[2,3-c]pyridin-6(2H)-yl)propoxy)-7-methoxyquinazolin-4-amine]
0.001 to 0.1	COc1cc2ncnc(Nc3ccc(F)c(Cl)c3)c2cc1OCCCN1CCC2CCN(C)C2C1 (centres unmarked) [Example 18, N-(3-chloro-4-fluorophenyl)-7-methoxy-6-(3-(1-methylhexahydro-1H-pyrrolo[2,3-c]pyridin-6(2H)-yl)propoxy)quinazolin-4-amine]
0.001 to 0.1	COc1cc2ncnc(Nc3ccc(F)c(Cl)c3)c2cc1OCCCN1CCC2NCCC2C1 (centres unmarked) [Example 19, N-(3-chloro-4-fluorophenyl)-6-(3-(hexahydro-1H-pyrrolo[3,2-c]pyridin-5(6H)-yl)propoxy)-7-methoxyquinazolin-4-amine]
0.001 to 0.1	COc1cc2ncnc(Nc3ccc(F)c(Cl)c3)c2cc1OCCCN1CC2CCOC(=O)C2C1 (centres unmarked) [Example 20, 2-(3-((4-((3-chloro-4-fluorophenyl)amino)-7-methoxyquinazolin-6-yl)oxy)propyl)hexahydropyrano[3,4-c]pyrrol-4(2H)-one]
0.001 to 0.1	COc1cc2ncnc(Nc3ccc(F)c(Cl)c3)c2cc1OCCCN1CC2CCCC2C1 (centres unmarked) [Example 21, N-(3-chloro-4-fluorophenyl)-6-(3-(hexahydrocyclopenta[c]pyrrol-2(1H)-yl)propoxy)-7-methoxyquinazolin-4-amine]
0.001 to 0.1	COc1cc2ncnc(Nc3ccc(F)c(Cl)c3)c2cc1OCCCN1CC2COCC2C1 (centres unmarked) [Example 22, N-(3-chloro-4-fluorophenyl)-7-methoxy-6-(3-(tetrahydro-1H-furo[3,4-c]pyrrol-5(3H)-yl)propoxy) quinazolin-4-amine]
1 to 10	COc1cc2ncnc(Nc3ccc(F)c(Cl)c3)c2cc1OCCCN1CC2CCOCC2C1 (centres unmarked) [Example 23, N-(3-chloro-4-fluorophenyl)-6-(3-(hexahydropyrano[3,4-c]pyrrol-2(3H)-yl)propoxy)-7-methoxyquinazolin-4-amine]
0.001 to 0.1	COc1cc2ncnc(Nc3ccc(F)c(Cl)c3)c2cc1OCCCN1CC2CCCNC2C1 (centres unmarked) [Example 25, N-(3-chloro-4-fluorophenyl)-6-(3-(hexahydro-1H-pyrrolo[3,4-b]pyridin-6(2H)-yl)propoxy)-7-methoxyquinazolin-4-amine]
0.001 to 0.1	COc1cc2ncnc(Nc3ccc(F)c(Cl)c3)c2cc1OCCCN1CC2CCCN(C)C2C1 (centres unmarked) [Example 28, N-(3-chloro-4-fluorophenyl)-7-methoxy-6-(3-(1-methylhexahydro-1H-pyrrolo[3,4-b]pyridin-6(2H)-yl)propoxy)quinazolin-4-amine]
1 to 10	COc1cc2ncnc(Nc3ccc(F)c(Cl)c3)c2cc1OCCCN1CC2C(C1)C2N(C)C (centres unmarked) [Example 32, N-(3-chloro-4-fluorophenyl)-6-(3-(6-(dimethylamino)-3-azabicyclo[3.1.0]hexan-3-yl)propoxy)-7-methoxyquinazolin-4-amine]
0.001 to 0.1	COc1cc2ncnc(Nc3ccc(F)c(Cl)c3)c2cc1OCCCN1CCC2CCNCC2C1 (centres unmarked) [Example 33, N-(3-chloro-4-fluorophenyl)-7-methoxy-6-(3-(octahydro-2,7-naphthyridin-2(1H)-yl)propoxy) quinazolin-4-amine]
